Test results taken from PubChem BioAssay (NCI).
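Cultured in 96-well plates, cells were exposed to test compound for 48 hours across five concentrations. TGI denotes the concentration required for complete inhibition of growth.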

Key:
Test in all cases: NCI anticancer screen, dose series, 48 h
[1] = test system: OVCAR-5 ovarian
[2] = test system: HOP-62 NSCLC
[3] = test system: OVCAR-8 ovarian
[4] = test system: LXFL 529 NSCLC
[5] = test system: NCI-H23 lung
[6] = test system: M14 melanoma
[7] = test system: IGROV1 ovarian
[8] = test system: MOLT-4 leukemia
[9] = test system: SK-MEL-2 melanoma
[10] = test system: ACHN renal
[11] = test system: CCRF-CEM leukemia
[12] = test system: OVCAR-4 ovarian
[13] = test system: LOX IMVI melanoma
[14] = test system: HT29 colon
[15] = test system: COLO 205 colon
[16] = test system: HCT-116 colon
[17] = test system: HCC-2998 colon
[18] = test system: A498 renal
[19] = test system: SNB-78 CNS
[20] = test system: KM12 colon
[21] = test system: TK-10 renal
[22] = test system: MALME-3M melanoma
[23] = test system: U251 CNS
[24] = test system: NCI-H522 lung
[25] = test system: HOP-18 NSCLC
[26] = test system: DMS 114 small cell lung
[27] = test system: SF-295 CNS
[28] = test system: HOP-92 NSCLC
[29] = test system: NCI-H226 lung
[30] = test system: SW-620 colon
[31] = test system: HCT-15 colon
[32] = test system: RPMI-8226 leukemia
[33] = test system: UACC-62 melanoma
[34] = test system: UACC-257 melanoma
[35] = test system: 786-0 renal
[36] = test system: UO-31 renal
[37] = test system: OVCAR-3 ovarian
[38] = test system: SK-MEL-5 melanoma
[39] = test system: SF-268 CNS
[40] = test system: SNB-19 CNS
[41] = test system: DLD-1 colon
[42] = test system: SN12C renal
[43] = test system: NCI-H460 lung
[44] = test system: KM20L2 colon
[45] = test system: K-562 leukemia
[46] = test system: SK-OV-3 ovarian
[47] = test system: M19-MEL melanoma
[48] = test system: SK-MEL-28 melanoma
[49] = test system: XF 498 CNS
[50] = test system: SNB-75 CNS
[51] = test system: DMS 273 small cell lung
[52] = test system: RXF 393 renal
[53] = test system: CAKI-1 renal
[54] = test system: A549 NSCLC
[55] = test system: EKVX NSCLC
[56] = test system: HL-60(TB) leukemia
[57] = test system: SF-539 CNS
[58] = test system: SR leukemia

CC(=O)Nc1ccc(C2C(C(=O)Nc3ccccc3)=C(C)NC(C)=C2C(=O)Nc2ccccc2)cc1
TGI [1]: > 100 µM
TGI [2]: > 100 µM
TGI [3]: > 100 µM
TGI [4]: > 100 µM
TGI [5]: > 100 µM
TGI [6]: > 100 µM
TGI [7]: > 100 µM
TGI [8]: > 100 µM
TGI [9]: > 100 µM
TGI [10]: > 100 µM
TGI [11]: > 100 µM
TGI [12]: > 100 µM
TGI [13]: > 100 µM
TGI [14]: > 100 µM
TGI [15]: > 100 µM
TGI [16]: > 100 µM
TGI [17]: > 100 µM
TGI [18]: > 100 µM
TGI [19]: > 100 µM
TGI [20]: > 100 µM
TGI [21]: > 100 µM
TGI [22]: > 100 µM
TGI [23]: > 100 µM
TGI [24]: > 100 µM
TGI [25]: > 100 µM
TGI [26]: > 82.5 µM
TGI [27]: > 100 µM
TGI [28]: > 100 µM
TGI [29]: > 100 µM
TGI [30]: > 100 µM
TGI [31]: > 100 µM
TGI [32]: > 100 µM
TGI [33]: > 100 µM
TGI [34]: > 100 µM
TGI [35]: > 100 µM
TGI [36]: > 100 µM
TGI [37]: > 100 µM
TGI [38]: > 100 µM
TGI [39]: > 100 µM
TGI [40]: > 100 µM
TGI [41]: > 100 µM
TGI [42]: > 100 µM
TGI [43]: > 100 µM
TGI [44]: > 100 µM
TGI [45]: > 100 µM
TGI [46]: > 100 µM
TGI [47]: > 100 µM
TGI [48]: > 100 µM
TGI [49]: > 100 µM
TGI [50]: > 100 µM
TGI [51]: > 100 µM
TGI [52]: > 100 µM
TGI [53]: > 100 µM
TGI [54]: > 100 µM
TGI [55]: > 100 µM
TGI [56]: > 100 µM
TGI [57]: > 100 µM

C/C(CC(=O)Nc1ccc(Cl)c(Cl)c1)=N/NC(=O)C[N+](C)(C)C
TGI [1]: > 100 µM
TGI [2]: > 100 µM
TGI [3]: > 100 µM
TGI [4]: > 100 µM
TGI [5]: > 100 µM
TGI [6]: > 100 µM
TGI [7]: > 100 µM
TGI [8]: > 100 µM
TGI [9]: > 100 µM
TGI [10]: > 100 µM
TGI [11]: > 100 µM
TGI [12]: > 100 µM
TGI [58]: 43.2 µM
TGI [13]: 35.5 µM
TGI [14]: > 100 µM
TGI [15]: > 100 µM
TGI [16]: > 100 µM
TGI [17]: > 100 µM
TGI [18]: > 100 µM
TGI [19]: > 100 µM
TGI [20]: > 100 µM
TGI [21]: > 100 µM
TGI [22]: > 100 µM
TGI [25]: > 100 µM
TGI [26]: 55.6 µM
TGI [27]: > 100 µM
TGI [28]: > 100 µM
TGI [29]: > 100 µM
TGI [31]: > 100 µM
TGI [32]: 63.4 µM
TGI [33]: > 100 µM
TGI [34]: > 100 µM
TGI [35]: > 100 µM
TGI [36]: > 100 µM
TGI [37]: > 100 µM
TGI [38]: > 100 µM
TGI [39]: > 100 µM
TGI [40]: > 100 µM
TGI [41]: > 100 µM
TGI [42]: > 100 µM
TGI [43]: > 100 µM
TGI [44]: > 100 µM
TGI [45]: > 100 µM
TGI [47]: > 100 µM
TGI [48]: > 100 µM
TGI [49]: > 100 µM
TGI [50]: > 100 µM
TGI [51]: > 100 µM
TGI [52]: > 100 µM
TGI [53]: > 100 µM
TGI [54]: > 100 µM
TGI [55]: > 100 µM
TGI [56]: > 100 µM
TGI [57]: > 100 µM
